Columns and labels:
[1] = target: T1, Glycylpeptide N-tetradecanoyltransferase (Candida albicans (strain SC5314 / ATCC MYA-2876), UniProt P30418); assay: Inhibition Assay
T1 sequence (P30418 whole entry): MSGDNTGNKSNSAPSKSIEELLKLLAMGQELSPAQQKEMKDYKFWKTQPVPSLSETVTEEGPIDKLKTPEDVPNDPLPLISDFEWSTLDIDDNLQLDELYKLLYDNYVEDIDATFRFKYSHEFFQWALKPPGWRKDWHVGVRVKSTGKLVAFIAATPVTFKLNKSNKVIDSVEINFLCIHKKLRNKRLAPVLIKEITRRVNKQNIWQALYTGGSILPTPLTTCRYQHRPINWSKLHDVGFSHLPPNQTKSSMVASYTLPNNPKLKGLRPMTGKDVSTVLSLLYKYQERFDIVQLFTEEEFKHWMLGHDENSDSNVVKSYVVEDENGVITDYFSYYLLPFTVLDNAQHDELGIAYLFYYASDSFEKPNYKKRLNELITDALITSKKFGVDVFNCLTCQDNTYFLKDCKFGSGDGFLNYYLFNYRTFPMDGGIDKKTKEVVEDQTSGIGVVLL

[2] = target: T2, Glycylpeptide N-tetradecanoyltransferase 1 (Homo sapiens, UniProt P30419); assay: Inhibition Assay
T2 sequence (P30419 whole entry): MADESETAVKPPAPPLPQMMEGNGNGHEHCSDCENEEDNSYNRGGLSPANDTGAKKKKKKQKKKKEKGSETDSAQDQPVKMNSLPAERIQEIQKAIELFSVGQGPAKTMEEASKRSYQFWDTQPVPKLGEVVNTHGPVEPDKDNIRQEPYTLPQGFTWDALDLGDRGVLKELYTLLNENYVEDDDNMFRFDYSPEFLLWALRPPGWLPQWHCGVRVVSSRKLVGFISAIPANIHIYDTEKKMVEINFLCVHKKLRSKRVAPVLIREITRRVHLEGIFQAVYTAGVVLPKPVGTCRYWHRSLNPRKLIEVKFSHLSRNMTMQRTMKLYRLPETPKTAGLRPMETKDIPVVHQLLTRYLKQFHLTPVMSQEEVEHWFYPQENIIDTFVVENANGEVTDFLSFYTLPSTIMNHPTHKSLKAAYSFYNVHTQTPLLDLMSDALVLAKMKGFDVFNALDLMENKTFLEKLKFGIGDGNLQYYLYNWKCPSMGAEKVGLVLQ

For COc1ccc(C(=O)NN=Cc2ccccc2C(=O)O)cc1OC [2-[(veratroylhydrazono)methyl]benzoic acid], the IC50 [1] was 830 nM.
Compound O=C(Nc1ccc(S(=O)(=O)NC2=NCCCCC2)cc1)C1COc2ccccc2O1 (stereo not drawn) [MLS000761278] has an IC50 [2] of over 570000 nM and an IC50 [1] of 1100 nM.
